The test system of one assay is Arachis hypogaea. The experiment in a line: Growth-regulating action, postemergence, greenhouse (Example 35, Table 1). It is filed as in vivo. The settings on record: for growth height relative: control 100. The source says:
(§1) The vessels used for the experiments were plastic pots having a volume of 1,130 cm^3 (Table A) or paraffined paper cups having a volume of 170 cm^3 (Table B). The pots and cups were filled with a sandy loam. The seeds of the test plants-separated by species-were sown shallow. Preemergence treatment (soil treatment) was effected immediately after sowing and before germination of the seeds. Seeds lying on the surface came into contact with the active ingredients. Postemergence treatment (leaf treatment) took place at an average growth height of the plants (depending on the rate of growth) of from 6 to 10 cm. The substances were suspended, emulsified or dissolved in water as diluent and applied by means of fine nozzles. The vessels were kept in the greenhouse in a temperature range of 12° C. to 25° C., and were regularly sprinkler irrigated for the duration of the experiment. The observation period was 6 to 8 weeks.
(§2) Further experiments were carried out in the greenhouse under the condition described in Example 11. […] As the plants which were examined liked the warmth (Eupghorbia geniculate, Arachis hypogaea, Cynodon dactylon), they were kept at from 20°-30° C. Cynodon dactylon from seed was cut once and the young growth treated postemergence.

For another assay, the system named is Cynodon dactylon. Described as above. The class given is in vivo. As to conditions: for growth height relative: control 100.
Excerpt: as §1, §2

Another assay relates to soybeans. In words: Soybeans in a vegetation experiment in sandy loam (Example 19). It is filed as in vivo, soybean (Gieso variety). As to conditions: for Growth height: 4 weeks; for response vs control in vivo at 3000 g/ha / response vs control in vivo at 6000 g/ha: control 100. As to the method: Soybean plants of the Gieso variety were grown in a neutral sandy loam. Fertilization took place at the time of sowing, with 0.5 g N as ammonium nitrate and 1.0 g P2 O5 as secondary potassium phosphate. […]
After 4 weeks, the treated plants were much shorter than the control, and looked more compact as a result of the different angle of the leaves. The prior art compound used for comparison purposes was 2,3,5-triiodobenzoic acid (T; U.S. Pat. No. 2,978,838).

The test system of the next assay is grass or lawns. The experiment in a line: Action on grass or lawns (Example 13). The class given is in vivo. As to conditions: for First cutting, dry substance / First cutting, growth height: 19 days after treatment; for First cutting, dry substance relative / First cutting, growth height relative: control 100; for Observations (color): control normal green. The source says:
Lawn seed of the standard mixture Agrostis tenius (10%), Cynosurus cristatus (10%), Festuca rubra (15%), Lolium perenne (35%) and Poa praetensis (30%) was sown in a loam in large pots. The soil was fertilized with 1.5 g N as ammonium nitrate and 1 g P2 O5 as secondary potassium phosphate. After the grass had been cut twice, it was sprayed in conventional manner at a height of 4 cm with the active ingredients at various application rates. 19 days after treatment the growth height and dry substance content were determined. The treated grass was much shorter than the control, and produced a correspondingly lower amount of dry substance.
The prior art compound used for comparison purposes was maleic hydrazide (M; German 815,192).

Where [1] appears, read: Glycine max, 672 h, read-out: Growth height relative.
Setting [2] is: Glycine max, 672 h, 3.0 kg/ha, read-out: Growth height relative.
Setting [3] is: Glycine max, 672 h, 6.0 kg/ha, read-out: Growth height relative.

On to `c1cc2sncc2cc1N1C2C3CC(C4N=NC34)C21` (centres unmarked), for which the Growth height with Arachis hypogaea (0.5 kg/ha) is listed as 13 cm; in the assay on Arachis hypogaea (1.0 kg/ha), 12 cm; in the assay on Arachis hypogaea (2.0 kg/ha) it was 9 cm; with Cynodon dactylon (0.5 kg/ha), 4 cm; in the assay with Cynodon dactylon (1.0 kg/ha), 4 cm; in the assay with Cynodon dactylon (2.0 kg/ha) it was 4 cm. Moreover, the growth height relative with Arachis hypogaea (0.5 kg/ha) worked out at 81; with Arachis hypogaea (1.0 kg/ha), 75; in the assay on Arachis hypogaea (2.0 kg/ha) it was 56; in the assay with Cynodon dactylon (0.5 kg/ha), 36; with Cynodon dactylon (1.0 kg/ha), 36; with Cynodon dactylon (2.0 kg/ha), 36.

For the molecule `Clc1ccc(N2C3C4CC(C5N=NC45)C32)cc1Cl` (centres unmarked), the Growth height is reported as 14 cm in the assay on Arachis hypogaea (0.5 kg/ha); 14 cm in the assay with Arachis hypogaea (1.0 kg/ha); 10 cm with Arachis hypogaea (2.0 kg/ha); 7 cm in the assay on Cynodon dactylon (0.5 kg/ha); 6 cm in the assay with Cynodon dactylon (1.0 kg/ha); 6 cm with Cynodon dactylon (2.0 kg/ha). For the same molecule, the growth height relative in the assay on Arachis hypogaea (0.5 kg/ha) was 87; in the assay with Arachis hypogaea (1.0 kg/ha), 87; with Arachis hypogaea (2.0 kg/ha), 62; with Cynodon dactylon (0.5 kg/ha), 64; with Cynodon dactylon (1.0 kg/ha) it was 54; with Cynodon dactylon (2.0 kg/ha), 54.

On to `c1csc(N2C3C4CC(C5N=NC45)C32)n1` (centres unmarked), for which the results for the Growth height with Cynodon dactylon (0.5 kg/ha), in the assay on Cynodon dactylon (1.0 kg/ha) and in the assay with Cynodon dactylon (2.0 kg/ha) were 8 cm, 7 cm and 6 cm, respectively. Also, the growth height relative in the assay with Cynodon dactylon (0.5 kg/ha) turned out to be 73; in the assay on Cynodon dactylon (1.0 kg/ha), 64; in the assay on Cynodon dactylon (2.0 kg/ha) it was 54.

Take `O=C(O)c1cc(I)cc(I)c1I` [T, 2,3,5-triiodobenzoic acid, reference compound]: in the assay with soybeans (0.125 kg/ha), the Growth height was found to be 23.5 cm. Besides, the Growth height in the assay with soybeans (0.375 kg/ha) is 25.0 cm. The molecule also showed a Growth height in the assay with soybeans (0.750 kg/ha) of 23.0 cm. In the assay with soybeans (setting [1]), the response vs control in vivo at 125 g/ha was 102%, the response vs control in vivo at 375 g/ha stood at 109% and the response vs control in vivo at 750 g/ha was 100%.

With `Clc1ccc(N2N=NC3C4CC(C5N=NC45)C32)cc1` (centres unmarked) [drawing 378], in the assay with grass or lawns (0.25 kg/ha), the “First cutting, dry substance” value is on record as 10.7 g; the “First cutting, growth height” value is 26.0 cm; the “First cutting, dry substance relative” value amounted to 85.6; the “First cutting, growth height relative” value is reported as 101.9. Further, the “Observations (color)” value in the assay on grass or lawns (0.25 kg/ha) is “normal green”. In the assay with grass or lawns (0.5 kg/ha), the “First cutting, dry substance” value was 8.6 g; the “First cutting, growth height” value was determined as 24.0 cm; the “First cutting, dry substance relative” value is 68.8; the “First cutting, growth height relative” value came out at 94.1. In addition, the “Observations (color)” value in the assay with grass or lawns (0.5 kg/ha) is on record as “normal green”. Also, in the assay with grass or lawns (1.0 kg/ha), the “First cutting, dry substance” value is given as 7.0 g; the “First cutting, growth height” value amounted to 19.0 cm; the “First cutting, dry substance relative” value was 56.0; the “First cutting, growth height relative” value was determined as 74.5. Also, the “Observations (color)” value with grass or lawns (1.0 kg/ha) was “normal green”. For the same molecule, in the assay with grass or lawns (2.0 kg/ha), the “First cutting, dry substance” value is reported as 4.8 g; the “First cutting, growth height” value worked out at 16.0 cm; the “First cutting, dry substance relative” value turned out to be 38.4; the “First cutting, growth height relative” value is given as 62.7. Moreover, the “Observations (color)” value in the assay on grass or lawns (2.0 kg/ha) is given as “dark green”. Further, in the assay on grass or lawns (4.0 kg/ha), the “First cutting, dry substance” value was 3.1 g; the “First cutting, growth height” value was 10.5 cm; the “First cutting, dry substance relative” value is 24.8; the “First cutting, growth height relative” value was 41.1. Besides, in the assay with grass or lawns (4.0 kg/ha), the “Observations (color)” value was “dark green”.

For the molecule `Brc1ccc(N2N=NC3C4CC(C5N=NC45)C32)cc1` (centres unmarked) [drawing 379], in the assay with grass or lawns (0.25 kg/ha), the “First cutting, dry substance” value was 12.8 g; the “First cutting, growth height” value was 25.0 cm; the “First cutting, dry substance relative” value turned out to be 102.4; the “First cutting, growth height relative” value came to 98.0. The “Observations (color)” value with grass or lawns (0.25 kg/ha) is on record as “normal green”. In the assay with grass or lawns (0.5 kg/ha), the “First cutting, dry substance” value was 11.4 g; the “First cutting, growth height” value is reported as 24.0 cm; the “First cutting, dry substance relative” value was 91.2; the “First cutting, growth height relative” value worked out at 94.1. Also, in the assay with grass or lawns (1.0 kg/ha), the “First cutting, dry substance” value is listed as 8.4 g; the “First cutting, growth height” value is recorded as 21.5 cm; the “First cutting, dry substance relative” value was 67.2; the “First cutting, growth height relative” value came out at 84.2. In the assay with grass or lawns (2.0 kg/ha), the “First cutting, dry substance” value worked out at 6.3 g; the “First cutting, growth height” value was 18.0 cm; the “First cutting, dry substance relative” value is 50.4; the “First cutting, growth height relative” value is given as 70.5. In the assay with grass or lawns (2.0 kg/ha, control 1.33), the “First cutting, chlorophyll content” value turned out to be 1.40 g Ca + b/100 g TS. For the same molecule, in the assay on grass or lawns (4.0 kg/ha), the “First cutting, dry substance” value turned out to be 4.1 g; the “First cutting, growth height” value worked out at 12.5 cm; the “First cutting, dry substance relative” value was determined as 32.8; the “First cutting, growth height relative” value was 49.0.

With `Clc1ccc(N2N=NC3C4CC(C5N=NC45)C32)cc1` (centres unmarked) [drawing 393], the Growth height with soybeans (3.0 kg/ha, soil) stood at 15.0 cm; in the assay with soybeans (6.0 kg/ha, soil) it was 14.0 cm. Also, the response vs control in vivo at 3000 g/ha in the assay with soybeans (setting [2]) stood at 65.2%. For the same molecule, the response vs control in vivo at 6000 g/ha in the assay with soybeans (setting [3]) was 60.9%.

Turning to `Clc1cccc(N2N=NC3C4CC(C5N=NC45)C32)c1` (centres unmarked) [drawing 394], the Growth height in the assay with soybeans (3.0 kg/ha, soil) came to 17.5 cm; with soybeans (6.0 kg/ha, soil), 14.5 cm. Besides, in the assay with soybeans (setting [2]), the response vs control in vivo at 3000 g/ha stood at 76.1%. Besides, the response vs control in vivo at 6000 g/ha in the assay with soybeans (setting [3]) turned out to be 63%.

Consider `Clc1ccc(N2N=NC3C4CC(C5NNC45)C32)cc1` (centres unmarked) [drawing 395], for which the Growth height with soybeans (3.0 kg/ha, soil) worked out at 13.5 cm; in the assay on soybeans (6.0 kg/ha, soil), 12.5 cm. Also, in the assay with soybeans (setting [2]), the response vs control in vivo at 3000 g/ha amounted to 58.7%. In the assay on soybeans (setting [3]), the response vs control in vivo at 6000 g/ha is 54.4%.

Turning to `FC(F)(F)c1ccc(Cl)c(N2N=NC3C4CC(C5N=NC45)C32)c1` (centres unmarked) [drawing 396], the Growth height with soybeans (3.0 kg/ha, soil) is on record as 17.5 cm; in the assay with soybeans (6.0 kg/ha, soil), 13.5 cm. Besides, in the assay on soybeans (setting [2]), the response vs control in vivo at 3000 g/ha turned out to be 76.1%. The response vs control in vivo at 6000 g/ha in the assay on soybeans (setting [3]) was determined as 58.7%.

As to `Brc1ccc(N2N=NC3C4CC(C5N=NC45)C32)cc1` (centres unmarked) [drawing 397], the Growth height in the assay on soybeans (3.0 kg/ha, soil) worked out at 14.0 cm; in the assay with soybeans (6.0 kg/ha, soil) it was 14.0 cm. Moreover, the response vs control in vivo at 3000 g/ha with soybeans (setting [2]) worked out at 60.9%. In addition, the response vs control in vivo at 6000 g/ha in the assay with soybeans (setting [3]) was 60.9%.

Consider `Brc1ccccc1N1N=NC2C3CC(C4N=NC34)C21` (centres unmarked) [drawing 398], for which the Growth height with soybeans (3.0 kg/ha, soil) came to 21.0 cm; in the assay with soybeans (6.0 kg/ha, soil), 17.0 cm. Further, in the assay with soybeans (setting [2]), the response vs control in vivo at 3000 g/ha amounted to 91.3%. In the assay with soybeans (setting [3]), the response vs control in vivo at 6000 g/ha is 73.9%.

In the case of `Brc1cccc(N2N=NC3C4CC(C5N=NC45)C32)c1` (centres unmarked) [drawing 399], the Growth height in the assay with soybeans (3.0 kg/ha, soil) was found to be 17.0 cm; with soybeans (6.0 kg/ha, soil), 16.0 cm. Further, the response vs control in vivo at 3000 g/ha in the assay on soybeans (setting [2]) came out at 73.9%. The response vs control in vivo at 6000 g/ha in the assay on soybeans (setting [3]) turned out to be 69.6%.

As to `FC(F)(F)c1cccc(N2C3C4CC(C5N=NC45)C32)c1` (centres unmarked) [drawing 434], the Growth height with Arachis hypogaea (0.25 kg/ha) was 8 cm; in the assay on Arachis hypogaea (0.5 kg/ha), 8 cm; in the assay with Arachis hypogaea (1.0 kg/ha), 7.5 cm; with Arachis hypogaea (2.0 kg/ha), 5 cm; in the assay with Cynodon dactylon (0.5 kg/ha), 4 cm; in the assay on Cynodon dactylon (1.0 kg/ha), 4 cm. Also, in the assay with Cynodon dactylon (2.0 kg/ha), the Growth height is given as 3 cm. Moreover, the growth height relative in the assay on Arachis hypogaea (0.25 kg/ha) was 50; in the assay with Arachis hypogaea (0.5 kg/ha), 50; with Arachis hypogaea (1.0 kg/ha) it was 47; in the assay with Arachis hypogaea (2.0 kg/ha), 31; with Cynodon dactylon (0.5 kg/ha) it was 36; in the assay on Cynodon dactylon (1.0 kg/ha) it was 36. Further, the growth height relative in the assay with Cynodon dactylon (2.0 kg/ha) was found to be 27.

(Values after patent publication US4257941A, “Polycyclic nitrogen-containing compounds” (BASF Aktiengesellschaft, priority 1976, dated 1981).)
